Laboratory results from US10059655B2, “Lipids and lipid compositions for the delivery of active agents” (priority 2013, dated 2018).

Columns and labels:
[1] = Particle size of the lipid nanoparticle (Z-average, dynamic light scattering, Malvern Zetasizer); assay type: physicochemical; conditions: RSV-F replicon RNA LNP, DLS; for Size 1st IM: 1st immunization; for Size 2nd IM: 2nd immunization
Source text: The lipid nanoparticles have a size of about 1 to about 2,500 nm, about 10 to about 1,500 nm, about 20 to about 1,000 nm, in a sub-embodiment about 50 to about 600 nm, in a sub-embodiment about 50 to about 400 nm, in a sub-embodiment about 50 to about 250 nm, and in a sub-embodiment about 50 to about 150 nm. Unless indicated otherwise, all sizes referred to herein are the average sizes (diameters) of the fully formed nanoparticle, as measured by dynamic light scattering on a Malvern Zetasizer. The nanoparticle sample is diluted in phosphate buffered saline (PBS) so that the count rate is approximately 200-400 kcts. The data is presented as a weighted average of the intensity measure.
Unless indicated otherwise, all particle size measurements referred to in Table 3 are the Z-average particle size of the fully formed nanoparticle, as measured by dynamic light scattering on a Malvern Zetasizer. The nanoparticle sample was diluted in phosphate buffered saline (PBS) so that the count rate is approximately 200-400 kcts.
(§1) % entrapment (% E), Concentration of RNA (Conc), particle size measured by DLS, and polydispersity reported by DLS of LNPs prepared with different cationic lipids

[2] = Percentage of encapsulated RNA and RNA concentration of replicon liposomes (Quant-iT RiboGreen); assay type: physicochemical; conditions: for %E (% entrapment) 1st IM / Conc (Concentration of RNA) 1st IM: RSV-F replicon RNA LNP prepared for 1st immunization; for %E (% entrapment) 2nd IM / Conc (Concentration of RNA) 2nd IM: RSV-F replicon RNA LNP prepared for 2nd immunization
Procedure: RNA was encapsulated in liposomes made essentially by the method of Geall et al. (2012) PNAS vol. 109 (36): 14604-14609, Jeffs et al. (2005) Pharmaceutical Research 22 (3):362-372, and Maurer et al. (2001) Biophysical Journal, 80: 2310-2326 The liposomes were made of 10% DSPC (zwitterionic), 40% cationic lipid, 48% cholesterol and 2% PEG-conjugated DMG (2 kDa PEG). These proportions refer to the % moles in the total liposome.
Briefly, lipids were dissolved in ethanol (2 ml), a RNA replicon was dissolved in buffer (2 ml, 100 mM sodium citrate, pH 6) and these were mixed with 2 ml of buffer followed by 1 hour of equilibration. The mixture was then dialized overnight against 1×PBS. The resulting product contained liposomes, with ˜70-95% encapsulation efficiency. For in vitro and in vivo experiments formulations were diluted to the required RNA concentration with 1×PBS.
The percentage of encapsulated RNA and RNA concentration were determined by Quant-iT RiboGreen RNA reagent kit (Invitrogen), following manufacturer's instructions. The ribosomal RNA standard provided in the kit was used to generate a standard curve. Liposomes were diluted 10× or 100× in 1×TE buffer (from kit) before addition of the dye. Separately, liposomes were diluted 10× or 100× in 1×TE buffer containing 0.5% Triton X before addition of the dye (to disrupt the liposomes and thus to assay total RNA). Thereafter an equal amount of dye was added to each solution and then ˜180 μL of each solution after dye addition was loaded in duplicate into a 96 well tissue culture plate. The fluorescence (Ex 485 nm, Em 528 nm) was read on a microplate reader. All liposome formulations were dosed in vivo based on the encapsulated amount of RNA.
as §1

[3] = Polydispersity index (PDI) by dynamic light scattering; assay type: physicochemical; conditions: RSV-F replicon RNA LNP, DLS; for PDI 1st IM: 1st immunization; for PDI 2nd IM: 2nd immunization
Procedure: Unless indicated otherwise, all PDIs referred to herein are the PDI of the fully formed nanoparticle, as measured by dynamic light scattering on a Malvern Zetasizer. The nanoparticle sample was diluted in phosphate buffered saline (PBS) so that the count rate was approximately 200-400 kcts. The data is presented in Table 3 as a weighted average of the intensity measure.
as §1

[4] = Measurement of mRNA encapsulation in lipid nanoparticles (Quant-iT Ribogreen); assay type: physicochemical; conditions: Leptin mRNA in LNP
Procedure: All equipment and disposable supplies are certified free of RNase activity by the manufacturer or rendered RNase free by use of the RNaseZap reagent (LifeTechnologies). mRNA is encapsulated at a cationic lipid amine to mRNA phosphate (N:P) molar ratio of 4:1. Lipids (cationic lipid, DSPC, cholesterol and lipidated PEG or stealth lipid) are dissolved in ethanol. The molar ratios are 40:10:38:2, respectively. The mixture is sonicated briefly, then gently agitated for 5 minutes and then maintained at 37° C. until use. mRNA is exchanged into citrate buffer pH 5.8-6.0 by use of Amicon Ultra-15 centrifugal concentrators, and the final concentration is adjusted to 0.5 mg/ml and held at 37° C. until use. An equal volume of lipids in ethanol, mRNA in citrate buffer, and citrate buffer alone are drawn into disposable syringes.
Tubing leading from syringes containing lipids and mRNA are attached to the T junction, and tubing leading from the syringe containing citrate buffer alone is paired with the tubing exiting the T-junction over a collection vessel containing a stir bar on an active stir plate. Syringes are placed in a syringe pump set to expel contents at a flow rate of 1 ml per minute. The pump is activated, and the collected mRNA in lipid nanoparticles is transferred to SnakeSkin dialysis tubing (10,000 MWCO, Thermo Scientific). Material is dialyzed against RNAse- and pyrogen-free 1× phosphate buffered saline overnight at 4° C.
Percent encapsulation of mRNA in lipid nanoparticles is determined using the Quant-iT Ribogreen RNA Assay kit (Life Technologies). The LNP-mRNA suspension is assayed in buffer (mRNA outside the particle), and buffer plus Triton X-100 detergent (total mRNA). The difference calculated is the mRNA inside the particle. Prepare a 1000 ng/mL stock from the RNA provided in the kit and use this to generate a standard curve (0 ng/ml, 15.63-1000 ng/ml) in TE and TE+0.75% Triton X-100. Prepare LNP-mRNA samples in TE buffer and TE buffer+0.75% Triton X-100 with appropriate dilution so that reading is in the range of standard curve (400-2,000 fold). In a 384-well plate (Costar non-treated #3573) add 0.04 ml of standard (in duplicate) or sample (in triplicate) per well. Dilute Ribogreen reagent 240-fold in TE buffer and add 0.06 ml per well. Mix contents of wells and measure fluorescence (excitation=480 nm, emission=520 nm). Subtract background values (no RNA) from standard and test sample values and determine the concentrations of RNA in the samples using the standard curves. Determine the percent encapsulation of the sample by dividing the difference in concentrations between sample+triton and sample in buffer alone by the sample+triton concentration.

RSV F protein = assay: RSV immunogenicity: F-specific IgG titers after IM vaccination with liposome-formulated self-replicating RNA; assay type: in vivo; conditions: IM days 0 and 21, BALB/c mice, two weeks after two immunizations

| SMILES | Size 1st IM [1] [nm] | Size 2nd IM [1] [nm] | %E (% entrapment) 1st IM [2] [%] | Conc (Concentration of RNA) 1st IM [2] [ng/mL] | %E (% entrapment) 2nd IM [2] [%] | Conc (Concentration of RNA) 2nd IM [2] [ng/mL] | PDI 1st IM [3] | PDI 2nd IM [3] | % encapsulation mRNA Leptin [4] [%] | Immunogenicity (2wp2; log10 IgG titers) (RSV F protein; 0.1 ng replicon RNA) [log10 IgG titers] | Immunogenicity (2wp2; log10 IgG titers) (RSV F protein; 1 ng replicon RNA) [log10 IgG titers] |
| --- | --- | --- | --- | --- | --- | --- | --- | --- | --- | --- | --- |
| CCCCC/C=C\C/C=C\CCCCCCCC(=O)OCC(COC(=O)CCC(OCCCCCCCC)OCCCCCCCC)COC(=O)CCN(C)C (stereo not shown) [Example 32, (9Z,12Z)-3-((4,4-bis(octyloxy)butanoyl)oxy)-2-(((3-(dimethylamino)propanoyl)oxy)methyl)propyl octadeca-9,12-dienoate] | 136.2 | 135 | 92.6 | 8810 | 94.72 | 9653 | 0.147 | 0.088 | 97.1 | 4.77 | 4.92 |
| CCCCC/C=C\C/C=C\CCCCCCCC(=O)OCC(COC(=O)CCC(OCCCCCCCC)OCCCCCCCC)COC(=O)C1CCN(CC2CC2)CC1 (stereo not shown) [Example 34, 3-((4,4-bis(octyloxy)butanoyl)oxy)-2-(((9Z,12Z)-octadeca-9,12-dienoyloxy)methyl)propyl 1-(cyclopropylmethyl)piperidine-4-carboxylate] | 136.2 | 135.4 | 75.5 | 9240 | 79.19 | 11495 | 0.116 | 0.11 | 97.1 | 3.73 | 4.36 |
| CCCCC/C=C\C/C=C\CCCCCCCC(=O)OCC(COC(=O)CCC(OCCCCCCCC)OCCCCCCCC)COC(=O)C1CCN(C)C1 (stereo not shown) [Example 35, 3-((4,4-bis(octyloxy)butanoyl)oxy)-2-(((9Z,12Z)-octadeca-9,12-dienoyloxy)methyl)propyl 1-methylpyrrolidine-3-carboxylate] | 135.2 | 137.5 | 93.46 | 10059 | 93.9 | 9937 | 0.119 | 0.108 | 97.3 | 4.53 | 4.86 |
| CCCCC/C=C\C/C=C\CCCCCCCC(=O)OCC(COC(=O)CCC(OCCCCCCCC)OCCCCCCCC)COC(=O)C1(C)CCN(C)CC1 (stereo not shown) [Example 40, 3-((4,4-bis(octyloxy)butanoyl)oxy)-2-(((9Z,12Z)-octadeca-9,12-dienoyloxy)methyl)propyl 1,4-dimethylpiperidine-4-carboxylate] | 141 | 137.3 | 71.1 | 9461 | 78.05 | 9650 | 0.122 | 0.118 | 97.2 | 4.31 | 4.74 |
| CCCCC/C=C\C/C=C\CCCCCCCC(=O)OCC(COC(=O)CCC(OCCCCCCCC)OCCCCCCCC)COC(=O)OC1CCN(C)CC1 (stereo not shown) [Example 48, (9Z,12Z)-3-((4,4-bis(octyloxy)butanoyl)oxy)-2-(((((1-methylpiperidin-4-yl)oxy)carbonyl)oxy)methyl)propyl octadeca-9,12-dienoate] | 137.9 | 134.2 | 86.169 | 9841 | 85.6 | 9665 | 0.091 | 0.075 | 92.8 | 4.58 | 5.02 |
